Data published in US20100105688A1, “PHARMACEUTICAL COMPOSITIONS COMPRISING 3,5-DIAMINO-6-(2,3-DICHLOPHENYL)-1,2,4-TRIAZINE OR R(-)-2,4-DIAMINO-5-(2,3-DICHLOROPHENYL)-6-FLUOROMETHYL PYRIMIDINE AND AN NK1” (GLAXO GROUP LIMITED, priority 2007, published 2010).
Read-outs that look alike come from different tables or passages of the source.

Assays:
[1] = system: Male CD rats; test: Rat MEST model (seizure threshold, CC50); type: in vivo
Method: This work was conducted in compliance with the Home Office Guidance on the operation of the Animals (Scientific Procedures) Act 1986 and GlaxoSmithKline ethical standards. Male CD rats (100-145 g) were supplied by Charles River, UK. Animals were group housed (6 animal per cage) with free access to food (Standard rodent chow; Harlan, UK) and water under a 12 h light/dark cycle (lights on at 0700 h). A period of at least one week between arrival at GSK and the study was allowed in all cases.
Animals were administered a test compound at the appropriate dose, route and pre-treatment time and returned to their home cage. Testing occurred in a separate room from that used for housing. Testing involved determining the threshold for tonic hindlimb extensor seizures using a Hugo Sachs Electronik stimulator which delivers a constant current of 0.3 second duration, 50 Hz, sinewave form, fully adjustable between 1 and 300 mA. Stimuli were delivered via corneal electrodes (Stean T O, Atkins A R, Heidbreder C A, Quinn L P, Trail B K, Upton N. (2005) Br J. Pharmacol. 144(5):628-35). Seizure threshold was determined using the ‘up and down’ method of Kimball et al. (1957)(Kimball A W, Burnett W T Jr, Doherty D G. (1957) Radiat Res. 7(1):1-12). The first animal tested in each group was stimulated with a current that might be expected to be close to the threshold for induction of a seizure. If a tonic seizure was not induced, then next animal in the group received a stimulus 5 mA higher. If a tonic seizure was induced, then the next animal received a stimulus 5 mA lower. This is repeated for all animals within the control (vehicle) group. In the case of groups treated with a sodium channel blocker steps of 10 to 30 mA were used.
(§1) All doses were calculated as base. ENa9 and ENa13 were dosed via the subcutaneous (s.c.) route at 1 ml/kg in a 2% v/v DMSO/saline vehicle 30 minutes prior to test. ENa7 and ENa14 were dosed orally (p.o.) in a 1% w/v methylcellulose/water vehicle at 2 ml/kg, 60 minutes before test. Compound ENK6 was dosed with via the intraperitoneal (i.p.) route 60 minutes before the test or via the s.c. route 15 minutes before test. In both cases ENK6 was dissolved in saline.
Induction of seizure is measured as an all-or-nothing effect scored as either present (+) or absent (0) for each animal. The data for each treatment group were recorded as the number of +'s and 0's at each current level employed and this information was then used to calculate the CC50 value (current required for 50% of animals to show seizure behaviour)+standard error of the mean according to the method of Kimball et al. (1957). Drug effects were calculated as the % change in CC50. Significant differences between drug-treated animals and appropriate vehicle treated groups were assessed according to the methods of Litchfield and Wilcoxon (1949). The statistical significance of differences between sodium channel blocker alone or in combination with ENK6 was assessed using a Student's t test.

[2] = Blood and brain concentrations in satellite animals of the MEST study; type: in vivo, rat; conditions: satellite rats; for concentration at 60 min: rat, po, n = 1
Method: Satellite animals (n=3/group) received the same drugs or combinations of drugs as the test groups, and were culled at the appropriate time after dosing. Blood and brain samples were taken for analysis of the drug concentrations in these compartments.
as §1

[3] = ENK6 10 mg/kg s.c. + ENa7 1 mg/kg p.o., n = 2-3
[4] = ENK6 10 mg/kg s.c. + ENa7 3 mg/kg p.o., n = 2-3
[5] = ENK6 30 mg/kg s.c. + ENa7 1 mg/kg p.o., n = 2
[6] = ENK6 30 mg/kg s.c. + ENa7 3 mg/kg p.o., n = 2

- concentration at 60 min ([2]; blood, 1 mg/kg, ENK6 veh + ENa7 1 mg/kg p.o. (Table 3), read-out: Blood concentration): 311 ng/mL
- concentration at 60 min ([2]; blood, 1 mg/kg, ENK6 veh + ENa7 1 mg/kg p.o. (Table 4), read-out: Blood concentration): 352 ng/mL
- concentration at 60 min ([2]; blood, 3 mg/kg, ENK6 veh + ENa7 3 mg/kg p.o. (Table 3), read-out: Blood concentration): 1180 ng/mL
- concentration at 60 min ([2]; blood, 3 mg/kg, ENK6 veh + ENa7 3 mg/kg p.o. (Table 4), read-out: Blood concentration): 1350 ng/mL
- concentration at 60 min ([2]; brain, 1 mg/kg, ENK6 veh + ENa7 1 mg/kg p.o. (Table 3), read-out: Brain concentration): 517 ng/g
- concentration at 60 min ([2]; brain, 1 mg/kg, ENK6 veh + ENa7 1 mg/kg p.o. (Table 4), read-out: Brain concentration): 588 ng/g
- concentration at 60 min ([2]; brain, 3 mg/kg, ENK6 veh + ENa7 3 mg/kg p.o. (Table 3), read-out: Brain concentration): 2830 ng/g
- concentration at 60 min ([2]; brain, 3 mg/kg, ENK6 veh + ENa7 3 mg/kg p.o. (Table 4), read-out: Brain concentration): 2190 ng/g
- Blood concentration [2, 3]: 581 ng/mL
- Brain concentration [2, 3]: 1125 ng/g
- Blood concentration [2, 4]: 1603 ng/mL
- Brain concentration [2, 4]: 2855 ng/g
- Blood concentration [2, 5]: 461 ng/mL
- Brain concentration [2, 5]: 752 ng/g
- Blood concentration [2, 6]: 1404 ng/mL
- Brain concentration [2, 6]: 2096 ng/g
SMILES: Nc1nnc(-c2cccc(Cl)c2Cl)c(N)n1 [ENa7, 3,5-diamino-6-(2,3-dichlorophenyl)-1,2,4-triazine, reference compound]
- increase in CC50 (mA) ([1]; sodium channel blocker 1 mg/kg p.o. in the presence of ENK6 10 mg/kg s.c. (first experiment)): 61%
- increase in CC50 (mA) ([1]; sodium channel blocker 1 mg/kg p.o. in the presence of ENK6 30 mg/kg s.c.): 145%
- increase in CC50 (mA) ([1]; sodium channel blocker 3 mg/kg p.o. in the presence of ENK6 30 mg/kg s.c. (second experiment)): 233%
- effect on seizure threshold ([1]; sodium channel blocker alone, 1 mg/kg p.o., 60 minutes before the test): little or no increase in seizure threshold
- increase in seizure threshold ([1]; sodium channel blocker alone, 3 mg/kg p.o., 60 minutes before the test, two independent experiments): 128-205%
